# Reference: US9000022B2 (Exelixis Patent Company LLC, priority 2005, dated 2015)
# Tested on: LXRα and/or LXRβ
# Assay: Co-transfection assay (LXRE luciferase reporter, CV-1 cells)
# Type: cell-based, human
# Conditions: tested as described in Example 33; IC50 or EC50 for LXRα and/or LXRβ, isoform not specified; read-out: activity (IC50 or EC50 for LXR)
# Text: To measure the ability of compounds to activate or inhibit the transcriptional activity of LXR in a cell based assay, the co-transfection assay was used. It has been shown that LXR functions as a heterodimer with RXR. For the co-transfection assay, expression plasmids for LXR and RXR are introduced via transient transfection into mammalian cells along with a luciferase reporter plasmid that contains one copy of a DNA sequence that is bound by LXR-RXR heterodimers (LXRE; Willy, P. et. al. 1995). Treatment of transfected cells with an LXR agonist increases the transcriptional activity of LXR, which is measured by an increase in luciferase activity.
# CV-1 African Green Monkey Kidney Cells Co-transfection expression plasmids, comprising full-length LXRα (pCMX-h LXRα, LXRβ (pCMX-hLXRβ), or RXRα (pCMX-RXR), reporter plasmid (LXREx1-Tk-Luciferase), and control (pCMX-Galactosidase expression vector) (Willey et al. Genes & Development 9 1033-1045 (1995)). Transfection reagent such as FuGENE6 (Roche). 1× Cell lysis buffer (1% Triton X 100 (J T Baker X200-07), 10% Glycerol (J T Baker M778-07), 5 mM Ditriotreitol (Quantum Bioprobe DTT03; add fresh before lysing), 1 mM EGTA (Ethylene Glycol-bis(B-Amino ethyl ether)-N,N,N′,N′-Tetracetic Acid) (Sigma E-4378), 25 mM Tricine (ICN 807420) pH 7.8) 1× Luciferase assay buffer (pH at 7.8) (0.73 mM ATP, 22.3 mM Tricine, 0.11 mM EDTA, 33.3 mM DTT) 1× Luciferrin/CoA (11 mM Luciferin, 3.05 mM Coenzyme A, 10 mM HEPES)
# CV-1 cells were prepared 24 hours prior to the experiment by plating them into T-175 flasks or 500 cm^2 dishes in order to achieve 70-80% confluency on the day of the transfection. The number of cells to be transfected was determined by the number of plates to be screened. Each 384 well plate requires 1.92×10^6 cells or 5000 cells per well. DNA Transfection Reagent was prepared by mixing the required plasmid DNAs with a cationic lipid transfection reagent FuGENE6 (Roche) by following the instructions provided with the reagents. Optimal DNA amounts were determined empirically per cell line and size of vessel to be transfected. 10-12 mL of media was added to the DNA Transfection Reagent and this mixture was added to the cells after aspirating media from the T175 cm^2 flask. Cells were then incubated at least 5 hours at 37° C. to prepare screening cells.
# Luciferase assay reagent was prepared by combining before use (per 10 mL): 10 mL 1× Luciferase assay buffer; 0.54 mL of 1× Luciferrin/CoA; 0.54 mL of 0.2 M Magnesium sulfate
# Assay plates were prepared by dispensing 5 μL, of compound per well of a 384 well plate to achieve final compound concentration of 10 μM and no more than 1% DMSO. Media was removed from the screening cells, the cells trypsinized, harvested cells by centrifugation, counted, and plated at a density of approximately 5000 cells per well in the 384 well assay plate prepared above in a volume of about 45 μL. Assay plates containing both compounds and screening cells (50 μL in total volume) were incubated for 20 hours at 37° C.
# After incubation with compounds, media was removed from the cells and lysis buffer (30 μL/well) added. After 30 minutes at ambient temperature, luciferase assay buffer (30 μL/well) was added and the assay plates read on a luminometer (PE Biosystems Northstar reader with on-board injectors, or equivalent). Plates were read immediately after addition of luciferase assay buffer.
# The LXR/LNRE co-transfection assay can be used to establish the EC50/IC50 values for potency and percent activity or inhibition for efficacy. Efficacy defines the activity of a compound relative to a high control ((N-(3-((4-fluorophenyl)-(naphthalene-2-sulfonyl)amino)propyl)-2,2-dimethylpropionamide)) or a low control (DMSO/vehicle). The dose response curves are generated from an 8 point curve with concentrations differing by ½ LOG units. Each point represents the average of 4 wells of data from a 384 well plate. […]
row,Compound,"IC50 or EC50 (potency, activation or inhibition) [µM]"
1,"Cc1cc(-c2cccc(S(C)(=O)=O)c2)ccc1-n1cc(C(=O)NCC(F)(F)F)nc1-c1c(Cl)cccc1Cl [Example 85, 2-(2,6-dichlorophenyl)-1-(3-methyl-3′-(methylsulfonyl)biphenyl-4-yl)-N-(2,2,2-trifluoroethyl)-1H-imidazole-4-carboxamide]",< 1
2,"CCN(CC)C(=O)c1cn(-c2ccc(-c3cccc(S(C)(=O)=O)c3)cc2C)c(-c2c(Cl)cccc2Cl)n1 [Example 86, 2-(2,6-dichlorophenyl)-N,N-diethyl-1-(3-methyl-3′-(methylsulfonyl)biphenyl-4-yl)-1H-imidazole-4-carboxamide]",< 1
3,"CS(=O)(=O)c1cccc(-c2ccc(-n3cc(C(=O)NCC(F)(F)F)nc3-c3c(Cl)cccc3Cl)cc2)c1 [Example 87, 2-(2,6-dichlorophenyl)-1-(3′-(methyl-sulfonyl)biphenyl-4-yl)-4-(2,2,2-trifluoroethyl)-1H-imidazole-4-carboxamide]",< 1
4,"CS(=O)(=O)c1cccc(-c2ccc(-n3cc(C(=O)NCCF)nc3-c3c(Cl)cccc3Cl)cc2)c1 [Example 88, 2-(2,6-dichlorophenyl)-N-(2-fluoroethyl)-1-(3′-(methyl-sulfonyl)biphenyl-4-yl)-1H-imidazole-4-carboxamide]",< 1
5,Cc1cc(-c2cccc(S(C)(=O)=O)c2)ccc1-n1cc(C(=O)NCC(F)(F)F)nc1-c1ccccc1C(C)C [Example 89],< 1
6,"CN(C)c1cccc(F)c1-c1nc(C(C)(C)O)cn1-c1ccc(-c2cccc(S(C)(=O)=O)c2)cc1 [Example 90, 2-(2-(2-(dimethylamino)-6-fluoro-phenyl)-1-(3′-(methylsulfonyl)biphenyl-4-yl)-1H-imidazol-4-yl)propan-2-ol]",< 1
7,"CCS(=O)(=O)c1cccc(-c2ccc(-n3cc(C(C)(C)O)nc3-c3c(Cl)cccc3Cl)cc2)c1 [Example 91, 2-(2-(2,6-dichlorophenyl)-1-(3′-(ethylsulfonyl)biphenyl-4-yl)-1H-imidazol-4-yl)propan-2-ol]",1 to 10
8,"CCS(=O)(=O)c1cccc(-c2ccc(-n3cc(C(C)(C)O)nc3-c3c(F)cccc3Cl)cc2)c1 [Example 92, 2-(2-(2-chloro-6-fluorophenyl)-1-(3′-(ethylsulfonyl)biphenyl-4-yl)-1H-imidazol-4-yl)propan-2-ol]",1 to 10
9,CCc1ccccc1-c1nc(C(C)(C)O)cn1-c1ccc(-c2cccc(S(C)(=O)=O)c2)cc1 [Example 93],< 1
10,"CC(C)c1ccccc1-c1nc(C(C)(C)O)cn1-c1ccc(-c2cccc(S(C)(=O)=O)c2)cc1 [Example 94, 2-(2-(2-isopropylphenyl)-1-(3′-(methylsulfonyl)biphenyl-4-yl)-1H-imidazol-4-yl)propan-2-ol]",< 1
11,"CCS(=O)(=O)c1cccc(-c2ccc(-n3cc(C(C)(C)O)nc3-c3cccc(F)c3Cl)cc2)c1 [Example 95, 2-(2-(2-chloro-3-fluorophenyl)-1-(3′-(ethylsulfonyl)biphenyl-4-yl)-1H-imidazol-4-yl)propan-2-ol]",< 1
12,"CCS(=O)(=O)c1cccc(-c2ccc(-n3cc(C(C)(C)O)nc3-c3ccccc3C(C)C)cc2)c1 [Example 96, 2-(1-(3′-(ethylsulfonyl)biphenyl-4-yl)-2-(2-isopropylphenyl)-1H-imidazol-4-yl)propan-2-ol]",< 1
13,"CCS(=O)(=O)c1cccc(-c2ccc(-n3cc(C(C)(C)O)nc3-c3c(C)cccc3Cl)cc2)c1 [Example 97, 2-(2-(2-chloro-6-methylphenyl)-1-(3′-(ethylsulfonyl)biphenyl-4-yl)-1H-imidazol-4-yl)propan-2-ol]",1 to 10
14,"CC(C)(O)c1cn(-c2ccc(-c3ccc(CO)c(S(C)(=O)=O)c3)cc2)c(-c2cccc(Cl)c2Cl)n1 [Example 98, 2-(2-(2,3-dichlorophenyl)-1-(4′-(hydroxymethyl)-3′-(methyl-sulfonyl)biphenyl-4-yl)-1H-imidazol-4-yl)propan-2-ol]",< 1
15,"CC(C)(O)c1cn(-c2ccc(-c3ccc(CO)c(S(C)(=O)=O)c3)cc2)c(-c2c(Cl)cccc2Cl)n1 [Example 99, 2-(2-(2,6-dichlorophenyl)-1-(4′-(hydroxymethyl)-3′-(methyl-sulfonyl)biphenyl-4-yl)-1H-imidazol-4-yl)propan-2-ol]",< 1
16,"CC(C)(O)c1cn(-c2ccc(-c3ccc(CO)c(S(C)(=O)=O)c3)cc2)c(-c2c(F)cccc2Cl)n1 [Example 100, 2-(2-(2-chloro-6-fluorophenyl)-1-(4′-(hydroxymethyl)-3′-(methyl-sulfonyl)biphenyl-4-yl)-1H-imidazol-4-yl)propan-2-ol]",1 to 10
17,"Cc1c(Cl)cccc1-c1nc(C(C)(C)O)cn1-c1ccc(-c2ccc(CO)c(S(C)(=O)=O)c2)cc1 [Example 101, 2-(2-(3-chloro-2-methylphenyl)-1-(4′-(hydroxymethyl)-3′-(methyl-sulfonyl)biphenyl-4-yl)-1H-imidazol-4-yl)propan-2-ol]",< 1
18,"Cc1cccc(Cl)c1-c1nc(C(C)(C)O)cn1-c1ccc(-c2ccc(CO)c(S(C)(=O)=O)c2)cc1 [Example 102, 2-(2-(2-chloro-6-methylphenyl)-1-(4′-(hydroxymethyl)-3′-(methyl-sulfonyl)biphenyl-4-yl)-1H-imidazol-4-yl)propan-2-ol]",< 1
19,"CC(C)(O)c1cn(-c2ccc(-c3ccc(CO)c(S(C)(=O)=O)c3)cc2)c(-c2c(F)cccc2F)n1 [Example 103, 2-(2-(2,6-difluorophenyl)-1-(4′-(hydroxymethyl)-3′-(methyl-sulfonyl)biphenyl-4-yl)-1H-imidazol-4-yl)propan-2-ol]",1 to 10
20,"CCS(=O)(=O)c1cccc(-c2ccc(-n3cc(C(=O)NCC(F)(F)F)nc3-c3c(Cl)cccc3Cl)c(C)c2)c1 [Example 104, 2-(2,6-dichlorophenyl)-1-(3′-(ethylsulfonyl)-3-methylbiphenyl-4-yl)-N-(2,2,2-trifluoroethyl)-1H-imidazole-4-carboxamide]",< 1
21,"CC(C)(O)c1cn(-c2ccc(-c3ccc(C(C)(C)O)c(S(C)(=O)=O)c3)cc2)c(-c2cccc(Cl)c2Cl)n1 [Example 105, 2-(2-(2,3-dichlorophenyl)-1-(4′-(2-hydroxypropan-2-yl)-3′-(methylsulfonyl)biphenyl-4-yl)-1H-imidazol-4-yl)propan-2-ol]",< 1
22,"Cc1cc(-c2ccc(-n3cc(C(C)(C)O)nc3-c3c(Cl)cccc3Cl)cc2)cc(S(C)(=O)=O)c1 [Example 106, 2-(2-(2,6-dichlorophenyl)-1-(′3-methyl-5′-(methyl-sulfonyl)biphenyl-4-yl)-1H-imidazol-4-yl)propan-2-ol]",1 to 10
23,"CC(C)(O)c1cn(-c2ccc(-c3cc(S(C)(=O)=O)ccc3Cl)cc2)c(-c2c(Cl)cccc2Cl)n1 [Example 107, 2-(1-(2′-chloro-5′-(methyl-sulfonyl)biphenyl-4-yl)-2-(2,6-dichlorophenyl)-1H-imidazol-4-yl)propan-2-ol]",< 1
24,"CNS(=O)(=O)c1cccc(-c2ccc(-n3cc(C(C)(C)O)nc3-c3c(Cl)cccc3Cl)cc2)c1 [Example 108, 4′-(2-(2,6-dichlorophenyl)-4-(2-hydroxypropan-2-yl)-1H-imidazol-1-yl)-N-methylbiphenyl-3-sulfonamide]",< 1
